According to article PMC11189555, “Aryl amino acetamides prevent Plasmodium falciparum ring development via targeting the lipid-transfer protein PfSTART1” (Nature Communications, 2024):
Like-named read-outs stand apart in the source and are kept apart here.

Legend:
[1] = tested on: 3D7 P. falciparum parasites; assay: Growth inhibition assay (72 h, LDH activity); assay type: cell-based, Plasmodium falciparum
Protocol: (§1) Parasite growth assays with inhibitory compounds were performed as per[11] and are fully described in the Supplementary Information. […]
(§2) Growth inhibition assays. Synchronised ring-stage parasites (0.3-0.6% parasitemia, 2% haematocrit) were grown for 72 h in a serial-dilution of the compound under […]
(§3) and compound 4. Note that M-833 was first purchased from MolPort (MolPort -002-267-916) then made in-house at WEHI: the differences observed in EC50s across experiments are attributed to the different batches of M -833. For some experiments, 0, 0.25 or 2.5 mM of glucosamine (GlcN) was also added. Experiments were set up in technical duplicates or triplicates. Following a freeze -thaw cycle, lactate dehydrogenase (LDH) activity was assessed as an indicator of parasite growt h 5. 30 μL of parasite culture was incubated for 30 min in the dark with 75 μL Malstat mixture (0.1 M Tris pH 9.0, 20 g/L lactic acid, pH 7.5, 0.2% Triton-X100, 0.5 g/L acetylpyridine adenine dinucleotide (APAD, Sigma), 200 μg/mL nitroblue tetrazolium (NBT; Sigma), 1 μg/mL phenozine ethosulfate (PES; Sigma)). Absorbance was then measured at 650 nm, transformed using the formula below, plotted against the logarithm of the concentrations, and a non-linear regression (log(inhibitor) vs. response, variable slope) was calculated using GraphPad Prism to assess the half-inhibitory […]
(§4) Growth inhibition % = (1 − average(sample)− average(uRBC)) ∗ 100 […]
(§5) The DMSO samples were also used to assess growth of parasite in the presence of 0.25 and 2.5 mM GlcN (normalised by DMSO in 0 mM GlcN). […]

[2] = tested on: PopD-D7 M-833 resistant clone (PfSTART1 N309K); assay: Growth inhibition assay (72 h, LDH activity); assay type: cell-based, Plasmodium falciparum
Protocol: The drug was then removed, and parasites were allowed to recover. Another cycle of drug treatment (3 μM M-833) was then resumed. The resistant lines were cloned out by limiting dilution (diluting the culture into a 96-well plate to achieve an average of ~0.3 parasites per well), prior to growth inhibition assays and genomic DNA (gDNA) extraction (DNeasy Blood and Tissue kit (Qiagen)[18].
as §1, §2, §3, §4, §5

Q: With `Cc1cc(Cl)c(S(=O)(=O)N2CCCC2)cc1OCC(=O)NC1CCCCC1` [M-833] as the molecule, how does the inhibition at 0.37037 µM ([1]; Plasmodium falciparum, 3D7, 3D7, 0.25 mM GlcN, conc 370.37 nM, read-out: Growth inhibition assay, NORMALISED) read?
A: 91.4%

Q: What about the inhibition at 1.11111 µM ([1]; Plasmodium falciparum, 3D7, 3D7, 0.25 mM GlcN, conc 1111.11 nM, read-out: Growth inhibition assay, NORMALISED) of the same molecule?
A: 95.5%

Q: What about the inhibition at 3.33333 µM ([1]; Plasmodium falciparum, 3D7, 3D7, 0.25 mM GlcN, conc 3333.33 nM, read-out: Growth inhibition assay, NORMALISED) of the same molecule?
A: 94.5%

Q: And the inhibition at 10 µM ([1]; Plasmodium falciparum, 3D7, 3D7, 0.25 mM GlcN, conc 10000 nM, read-out: Growth inhibition assay, NORMALISED)?
A: 92.9%

Q: What about the inhibition at 0.0390625 µM ([1]; Plasmodium falciparum, 3D7, 3D7 replicate 1, M-833 0.0390625 uM) of the same molecule?
A: 6.15%

Q: What about the inhibition at 0.078125 µM ([1]; Plasmodium falciparum, 3D7, 3D7 replicate 1, M-833 0.078125 uM) of the same molecule?
A: 21.8%

Q: And the inhibition at 0.15625 µM ([1]; Plasmodium falciparum, 3D7, 3D7 replicate 1, M-833 0.15625 uM)?
A: 47%

Q: What about the inhibition at 0.3125 µM ([1]; Plasmodium falciparum, 3D7, 3D7 replicate 1, M-833 0.3125 uM) of the same molecule?
A: 68.2%

Q: And the inhibition at 0.625 µM ([1]; Plasmodium falciparum, 3D7, 3D7 replicate 1, M-833 0.625 uM)?
A: 84.4%

Q: And the inhibition at 1.25 µM ([1]; Plasmodium falciparum, 3D7, 3D7 replicate 1, M-833 1.25 uM)?
A: 93.1%

Q: What about the inhibition at 2.5 µM ([1]; Plasmodium falciparum, 3D7, 3D7 replicate 1, M-833 2.5 uM) of the same molecule?
A: 95.8%

Q: What about the inhibition at 5 µM ([1]; Plasmodium falciparum, 3D7, 3D7 replicate 1, M-833 5 uM) of the same molecule?
A: 95.5%

Q: What about the inhibition at 10 µM ([1]; Plasmodium falciparum, 3D7, 3D7 replicate 1, M-833 10 uM, read-out: % Inhibition) of the same molecule?
A: 97.3%

Q: What about the EC50 ([1]; Plasmodium falciparum, 3D7, 72 h, Fig 2B, 3D7, 72 h, n = 3, unit only in x-axis title, read-out: EC50 (95% confidence interval)) of the same molecule?
A: 97.6 nM

Q: What about the EC50 ([1]; Plasmodium falciparum, 3D7, 72 h, Fig 2D, 3D7, 72 h, n = 3, read-out: EC50 (95% confidence interval)) of the same molecule?
A: 49.7 nM

Q: What about the EC50 ([1]; Plasmodium falciparum, 3D7, 72 h, Supplementary Table 1, 3D7, 72 h, read-out: EC50) of the same molecule?
A: 156 nM

Q: What about the EC50 ([1]; Plasmodium falciparum, 3D7, Fig 1B, 3D7, 10 µM to 0.04 µM M-833, n = 3, unit only on x-axis label, read-out: EC50 (95% confidence interval)) of the same molecule?
A: 170 nM

Q: What about the EC50 ([1]; Plasmodium falciparum, 3D7, Fig 3C, 3D7, 0 mM GlcN, n = 4, unit on plot axis, read-out: EC50 M-833 (95% confidence interval)) of the same molecule?
A: 157 nM

Q: What about the EC50 ([1]; Plasmodium falciparum, 3D7, Fig 3C, 3D7, 0.25 mM GlcN, n = 4, unit on plot axis, read-out: EC50 M-833 (95% confidence interval)) of the same molecule?
A: 158 nM

Q: What about the EC50 ([1]; Plasmodium falciparum, 3D7, Fig 3C, 3D7, 2.5 mM GlcN, n = 4, unit on plot axis, read-out: EC50 M-833 (95% confidence interval)) of the same molecule?
A: 118 nM

Q: What about the EC50 ([1]; Plasmodium falciparum, 3D7, Fig 3F, 3D7, 0.25 mM GlcN, n = 3, read-out: EC50 M-833 (95% confidence interval)) of the same molecule?
A: 54.8 nM

Q: And the EC50 ([1]; Plasmodium falciparum, 3D7, Fig 3F, 3D7, 2.5 mM GlcN, n = 3, read-out: EC50 M-833 (95% confidence interval))?
A: 37.3 nM

Q: And the EC50 ([1]; Plasmodium falciparum, 3D7, Fig 4A, 3D7 parasites, read-out: Pf 3D7 EC50 (SD))?
A: 1100 nM

Q: And the inhibition at 0.0390625 µM ([1]; Plasmodium falciparum, 3D7, M-833 0.0390625 uM, 3D7 replicate 1)?
A: 1.91%

Q: And the inhibition at 0.0390625 µM ([1]; Plasmodium falciparum, 3D7, M-833 0.0390625 uM, 3D7 replicate 3)?
A: -5.13%

Q: What about the inhibition at 0.078125 µM ([1]; Plasmodium falciparum, 3D7, M-833 0.078125 uM, 3D7 replicate 1) of the same molecule?
A: 30.8%

Q: What about the inhibition at 0.078125 µM ([1]; Plasmodium falciparum, 3D7, M-833 0.078125 uM, 3D7 replicate 3) of the same molecule?
A: -1.15%

Q: And the inhibition at 0.15625 µM ([1]; Plasmodium falciparum, 3D7, M-833 0.15625 uM, 3D7 replicate 1)?
A: 57.1%

Q: What about the inhibition at 0.15625 µM ([1]; Plasmodium falciparum, 3D7, M-833 0.15625 uM, 3D7 replicate 3) of the same molecule?
A: 12.4%

Q: And the inhibition at 0.3125 µM ([1]; Plasmodium falciparum, 3D7, M-833 0.3125 uM, 3D7 replicate 1)?
A: 82.6%

Q: And the inhibition at 0.3125 µM ([1]; Plasmodium falciparum, 3D7, M-833 0.3125 uM, 3D7 replicate 3)?
A: 44.5%

Q: And the inhibition at 0.625 µM ([1]; Plasmodium falciparum, 3D7, M-833 0.625 uM, 3D7 replicate 1)?
A: 87.3%

Q: And the inhibition at 0.625 µM ([1]; Plasmodium falciparum, 3D7, M-833 0.625 uM, 3D7 replicate 3)?
A: 64.5%

Q: What about the inhibition at 1.25 µM ([1]; Plasmodium falciparum, 3D7, M-833 1.25 uM, 3D7 replicate 1) of the same molecule?
A: 91%

Q: What about the inhibition at 1.25 µM ([1]; Plasmodium falciparum, 3D7, M-833 1.25 uM, 3D7 replicate 3) of the same molecule?
A: 73.5%

Q: And the inhibition at 2.5 µM ([1]; Plasmodium falciparum, 3D7, M-833 2.5 uM, 3D7 replicate 1)?
A: 91.8%

Q: And the inhibition at 2.5 µM ([1]; Plasmodium falciparum, 3D7, M-833 2.5 uM, 3D7 replicate 3)?
A: 77.3%

Q: What about the inhibition at 5 µM ([1]; Plasmodium falciparum, 3D7, M-833 5 uM, 3D7 replicate 1) of the same molecule?
A: 91.3%

Q: And the inhibition at 5 µM ([1]; Plasmodium falciparum, 3D7, M-833 5 uM, 3D7 replicate 3)?
A: 83.4%

Q: And the inhibition at 10 µM ([1]; Plasmodium falciparum, 3D7, M-833 10 uM, 3D7 replicate 1, read-out: % Inhibition)?
A: 91.1%

Q: And the inhibition at 10 µM ([1]; Plasmodium falciparum, 3D7, M-833 10 uM, 3D7 replicate 3, read-out: % Inhibition)?
A: 78%

Q: And the “effect of GlcN addition on EC50” value ([1]; control 3D7)?
A: did not change the EC50

Q: And the “Normalised to DMSO” value ([2]; M-833 0.0390625 uM, PopD-D7 replicate 1)?
A: 102.734

Q: What about the “Normalised to DMSO” value ([2]; M-833 0.0390625 uM, PopD-D7 replicate 3) of the same molecule?
A: 100.987

Q: And the “Normalised to DMSO” value ([2]; M-833 0.078125 uM, PopD-D7 replicate 1)?
A: 102.828

Q: And the “Normalised to DMSO” value ([2]; M-833 0.078125 uM, PopD-D7 replicate 3)?
A: 101.481

Q: What about the “Normalised to DMSO” value ([2]; M-833 0.15625 uM, PopD-D7 replicate 1) of the same molecule?
A: 103.677

Q: And the “Normalised to DMSO” value ([2]; M-833 0.15625 uM, PopD-D7 replicate 3)?
A: 99.9013

Q: What about the “Normalised to DMSO” value ([2]; M-833 0.3125 uM, PopD-D7 replicate 1) of the same molecule?
A: 100.66

Q: What about the “Normalised to DMSO” value ([2]; M-833 0.3125 uM, PopD-D7 replicate 3) of the same molecule?
A: 100.592

Q: And the “Normalised to DMSO” value ([2]; M-833 0.625 uM, PopD-D7 replicate 1)?
A: 98.7744

Q: And the “Normalised to DMSO” value ([2]; M-833 0.625 uM, PopD-D7 replicate 3)?
A: 98.815

Q: What about the “Normalised to DMSO” value ([2]; M-833 1.25 uM, PopD-D7 replicate 1) of the same molecule?
A: 99.0572

Q: What about the “Normalised to DMSO” value ([2]; M-833 1.25 uM, PopD-D7 replicate 3) of the same molecule?
A: 95.26

Q: And the “Normalised to DMSO” value ([2]; M-833 2.5 uM, PopD-D7 replicate 1)?
A: 95.8517

Q: What about the “Normalised to DMSO” value ([2]; M-833 2.5 uM, PopD-D7 replicate 3) of the same molecule?
A: 89.6313

Q: What about the “Normalised to DMSO” value ([2]; M-833 5 uM, PopD-D7 replicate 1) of the same molecule?
A: 85.4808

Q: And the “Normalised to DMSO” value ([2]; M-833 5 uM, PopD-D7 replicate 3)?
A: 79.5589
